In the NIST ThermoML archive (doi:10.1021/je600519p):

Test: xn = mol fraction of the nth substance listed
Conditions: 101 kPa, Liquid

CCOC(=O)OCC [diethyl carbonate] + CCCCCCO
Conditions | mass density [kg/m3] | speed of sound [m/s] | viscosity [mPa·s]
293.15 K, x1 = 0.0502 | 825.96 | 1301 | 4.731
293.15 K, x1 = 0.1123 | 834.86 | 1291 | 4.164
293.15 K, x1 = 0.1499 | 840.29 | 1285 | 3.715
293.15 K, x1 = 0.2103 | 849.1 | 1275 | 3.178
293.15 K, x1 = 0.2508 | 855.05 | 1268 | 2.837
293.15 K, x1 = 0.3121 | 864.19 | 1259 | 2.382
293.15 K, x1 = 0.3576 | 871.02 | 1252 | 2.078
293.15 K, x1 = 0.4113 | 879.15 | 1245 | 1.757
293.15 K, x1 = 0.4632 | 887.08 | 1239 | 1.488
293.15 K, x1 = 0.5111 | 894.51 | 1234 | 1.247
293.15 K, x1 = 0.552 | 900.88 | 1230 | 1.115
293.15 K, x1 = 0.6008 | 908.59 | 1226 | 0.956
293.15 K, x1 = 0.6498 | 916.39 | 1222 | 0.863
293.15 K, x1 = 0.7108 | 926.19 | 1219 | 0.859
293.15 K, x1 = 0.7554 | 933.45 | 1216 | 0.84
293.15 K, x1 = 0.8112 | 942.65 | 1213 | 0.831
293.15 K, x1 = 0.8501 | 949.13 | 1211 | 0.825
293.15 K, x1 = 0.9002 | 957.5 | 1208 | 0.818
293.15 K, x1 = 0.9555 | 966.89 | 1206 | 0.803
303.15 K, x1 = 0.0502 | 818.55 | 1267 | 3.486
303.15 K, x1 = 0.1123 | 827.16 | 1256 | 3.03
303.15 K, x1 = 0.1499 | 832.48 | 1249 | 2.796
303.15 K, x1 = 0.2103 | 841.04 | 1240 | 2.403
303.15 K, x1 = 0.2508 | 846.79 | 1234 | 2.165
303.15 K, x1 = 0.3121 | 855.69 | 1225 | 1.859
303.15 K, x1 = 0.3576 | 862.23 | 1217 | 1.621
303.15 K, x1 = 0.4113 | 870.21 | 1210 | 1.414
303.15 K, x1 = 0.4632 | 877.88 | 1204 | 1.22
303.15 K, x1 = 0.5111 | 885.13 | 1200 | 1.063
303.15 K, x1 = 0.552 | 891.35 | 1197 | 0.951
303.15 K, x1 = 0.6008 | 898.87 | 1194 | 0.844
303.15 K, x1 = 0.6498 | 906.42 | 1193 | 0.811
303.15 K, x1 = 0.7108 | 915.93 | 1192 | 0.804
303.15 K, x1 = 0.7554 | 923.08 | 1191 | 0.774
303.15 K, x1 = 0.8112 | 932.03 | 1190 | 0.748
303.15 K, x1 = 0.8501 | 938.29 | 1189 | 0.73
303.15 K, x1 = 0.9002 | 946.57 | 1188 | 0.724
303.15 K, x1 = 0.9555 | 955.77 | 1187 | 0.713
313.15 K, x1 = 0.0502 | 811.04 | 1252 | 2.621
313.15 K, x1 = 0.1123 | 819.37 | 1236 | 2.339
313.15 K, x1 = 0.1499 | 824.54 | 1224 | 2.115
313.15 K, x1 = 0.2103 | 832.78 | 1211 | 1.856
313.15 K, x1 = 0.2508 | 838.35 | 1203 | 1.687
313.15 K, x1 = 0.3121 | 846.97 | 1192 | 1.466
313.15 K, x1 = 0.3576 | 853.42 | 1185 | 1.319
313.15 K, x1 = 0.4113 | 861.12 | 1177 | 1.16
313.15 K, x1 = 0.4632 | 868.59 | 1170 | 1.031
313.15 K, x1 = 0.5111 | 875.61 | 1165 | 0.912
313.15 K, x1 = 0.552 | 881.55 | 1162 | 0.826
313.15 K, x1 = 0.6008 | 888.91 | 1158 | 0.744
313.15 K, x1 = 0.6498 | 896.35 | 1155 | 0.689
313.15 K, x1 = 0.7108 | 905.65 | 1153 | 0.61
313.15 K, x1 = 0.7554 | 912.55 | 1152 | 0.607
313.15 K, x1 = 0.8112 | 921.16 | 1151 | 0.602
313.15 K, x1 = 0.8501 | 927.49 | 1150 | 0.606
313.15 K, x1 = 0.9002 | 935.57 | 1148 | 0.61
313.15 K, x1 = 0.9555 | 944.49 | 1146 | 0.615
323.15 K, x1 = 0.0502 | 803.29 | 1204 | 2.06
323.15 K, x1 = 0.1123 | 811.3 | 1184 | 1.825
323.15 K, x1 = 0.1499 | 816.2 | 1172 | 1.689
323.15 K, x1 = 0.2103 | 824.2 | 1160 | 1.488
323.15 K, x1 = 0.2508 | 829.57 | 1153 | 1.367
323.15 K, x1 = 0.3121 | 837.88 | 1143 | 1.22
323.15 K, x1 = 0.3576 | 844.05 | 1137 | 1.093
323.15 K, x1 = 0.4113 | 851.48 | 1131 | 0.97
323.15 K, x1 = 0.4632 | 858.73 | 1126 | 0.857
323.15 K, x1 = 0.5111 | 865.59 | 1123 | 0.765
323.15 K, x1 = 0.552 | 871.51 | 1121 | 0.689
323.15 K, x1 = 0.6008 | 878.65 | 1119 | 0.607
323.15 K, x1 = 0.6498 | 885.85 | 1117 | 0.568
323.15 K, x1 = 0.7108 | 894.96 | 1115 | 0.532
323.15 K, x1 = 0.7554 | 901.77 | 1114 | 0.535
323.15 K, x1 = 0.8112 | 910.41 | 1113 | 0.537
323.15 K, x1 = 0.8501 | 916.42 | 1112 | 0.54
323.15 K, x1 = 0.9002 | 924.3 | 1111 | 0.544
323.15 K, x1 = 0.9555 | 933.24 | 1110 | 0.548
